Source: PubChem BioAssay AID588780 (Sanford-Burnham Center for Chemical Genomics, 2011)
The source made the active and inactive calls.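 Rule for the calls: active = compounds whose fitted half-maximal concentration in the cell-protection dose series is at or below a set limit; inactive = the rest.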

tested on: H9c2 cardiomyocytes, 2-deoxyglucose stress, ATP luminescence, 2 h; experiment: H9c2 cell survival under 2-deoxyglucose stress – uHTS hits, dose response (AID 588780)

Row | SMILES | IC50
1 | C[C@@H]1CN([C@H](C)CO)S(=O)(=O)c2ccc(C#Cc3ccccc3F)cc2O[C@H]1CN(C)C(=O)c1ccc2c(c1)OCO2 | > 79 µM (inactive)
2 | NC(=O)c1nsc(C(=O)N(c2ccccc2)C(C(=O)NC2CCCC2)c2ccc3ncccc3c2)c1N (configuration not stated) | > 79 µM (inactive)
3 | O=C1NC(Cc2ccc(O)cc2)c2nc3ccc(F)cc3c(=O)n2-c2cc3ccccc3cc21 (configuration not stated) | 12.4 µM
4 | COc1ccccc1OCC(=O)N/N=C/c1cccc2cccnc12 | 49.2 µM (inactive)
5 | COc1cc(C(=O)Nc2cccc(-c3nnc(-c4ccco4)o3)c2)ccc1OC(C)=O | > 79 µM (inactive)
6 | Cc1c(C(=O)NCC2COc3ccccc3O2)oc2ccc(S(=O)(=O)N3CCOCC3)cc12 (configuration not stated) | > 79 µM (inactive)
7 | Brc1ccc(-c2nn3c(-c4ccccn4)nnc3s2)o1 | 52.8 µM (inactive)
8 | CCCCCCSc1ccc([C@H]2N[C@@](Cc3ccccc3)(C(=O)OC)[C@H]3C(=O)N(C)C(=O)[C@@H]23)cc1 | > 79 µM (inactive)
9 | COc1ccccc1CN(Cc1nc2ccccc2c(=O)[nH]1)S(=O)(=O)c1ccc2ccccc2c1 | > 79 µM (inactive)
10 | CC(=O)c1ccc(N2CCN(C(=O)c3cc(-c4cccnc4)nc4ccc(Br)cc34)CC2)cc1 | 11 µM
11 | O=c1[nH]nc(CNc2ccc(C(F)(F)F)cc2)c2ccccc12 | 15.1 µM
12 | Nc1cc2[nH]c(=O)c3ccccc3c2cc1[N+](=O)[O-] | 15.1 µM
13 | O=C(Nc1ccccc1)c1nc[nH]c1C(=O)NCCCCCCNC(=O)c1[nH]cnc1C(=O)Nc1ccccc1 | 10.5 µM
14 | Cc1ccc2sc(NNC(=O)c3ccc4c(c3)OCCO4)nc2c1C | > 79 µM (inactive)
15 | CN(CC(=O)Nc1c(Cl)cccc1Cl)C(=O)Cn1[nH]c(=O)c2ccccc2c1=O | > 79 µM (inactive)
16 | COC(=O)c1cc2ccccn2c2c(C(=O)OC)c(C(=O)OC)cc1-2 | > 79 µM (inactive)
17 | COc1ccc(N(CC(=O)N/N=C/c2cccs2)S(=O)(=O)c2ccc(OC)c(OC)c2)cc1 | 27.8 µM
18 | C[C@@H](OC(=O)c1[nH]cnc1C(=O)NCc1ccc(CNC(=O)OC(C)(C)C)cc1)c1ccccc1 | > 79 µM (inactive)
19 | COc1ccc(-c2nnc(-c3cc(OC)c(OC)c(OC)c3)o2)cc1OC | 14.6 µM
20 | Cc1csc2nc(COC(=O)c3ccc(Cl)c([N+](=O)[O-])c3)cc(=O)n12 | > 79 µM (inactive)
21 | Cc1ccccc1C1c2[nH]c3ccccc3c2C[C@H]2C(=O)N(c3ccccc3C(=O)NCCCN3CCOCC3)C(=O)N12 (some centres not stated) | 27.1 µM
22 | O=C(Nc1cccc(N=Cc2cc(Br)cc(Br)c2O)c1)c1ccco1 | > 79 µM (inactive)
23 | O=C(/C=C/c1ccc(Cl)c([N+](=O)[O-])c1)Nc1cccnc1 | > 79 µM (inactive)

Row | SMILES | IC50
24 | Cc1c(-c2ccccc2)oc2c(C(=O)OCC(=O)Nc3ccc(C(N)=O)cc3)cccc2c1=O | 9.94 µM
25 | CC(NC(=O)Cn1nc(C(=O)O)c2ccccc2c1=O)c1ccccc1 (configuration not stated) | > 79 µM (inactive)
26 | NC(=O)c1cccc(-c2coc3c(C(=O)NCCc4ccccc4)cccc23)c1 | > 79 µM (inactive)
27 | COc1cc(C(=O)N/N=C/c2ccc(OC(=O)c3ccccc3)c(OC)c2)ccc1O | > 79 µM (inactive)
28 | O=C(Cn1[nH]c(=O)c2ccccc2c1=O)N1CCN(S(=O)(=O)c2ccc(Cl)cc2)CC1 | > 79 µM (inactive)
29 | COc1ccc(-c2ccc3c(c2)S(=O)(=O)c2cccc(C(=O)N4CCN(c5ccccn5)CC4)c2C3=O)cc1OC | 13.7 µM
30 | CCCN(CC(=O)Nc1ccccc1C)C(=O)Cc1n[nH]c(=O)c2ccccc12 | > 79 µM (inactive)
31 | COc1cc(-c2cc(NC=O)c3ncc(-c4ccc(C(C)=O)cc4)n3c2)cc(OC)c1OC | > 79 µM (inactive)
32 | Cc1ccccc1N=Cc1cc2c(cc1[N+](=O)[O-])OCO2 | > 79 µM (inactive)
33 | COc1ccc([N+](=O)[O-])cc1NC(=O)C(C)OC(=O)Cn1[nH]c(=O)c2ccccc2c1=O (configuration not stated) | 40 µM (inactive)
34 | Cc1ccc2cc3c(NC(=O)c4cccnc4)nn(C)c3nc2c1 | > 79 µM (inactive)
35 | O=C(NCc1ccc2c(c1)OCO2)c1n[nH]c(=O)c2ccccc12 | > 79 µM (inactive)
36 | NC(=O)c1cccc(Nc2nc(C(N)CCc3ccccc3)cs2)n1 (configuration not stated) | > 79 µM (inactive)
37 | CC(C)CC(=O)Nc1ccc(C(=O)COC(=O)Cc2n[nH]c(=O)c3ccccc23)cc1 | > 79 µM (inactive)
38 | O=CNc1cc(-c2ccc(C(=O)NC3CC3)cc2)cn2c(-c3ccccc3)cnc12 | 12.1 µM
39 | CC(=O)N1CCN(c2ccccc2NC(=O)c2ccc(-c3cccc([N+](=O)[O-])c3)o2)CC1 | 5.88 µM
40 | O=C(Nc1nc(-c2ccccn2)cs1)c1cccc(-n2cnnn2)c1 | > 79 µM (inactive)
41 | Cc1ccc(C)c(C(=O)COC(=O)Cn2[nH]c(=O)c3ccccc3c2=O)c1 | > 79 µM (inactive)
42 | O=C(COc1ccc(F)cc1Cl)Nc1nc(-c2ccccn2)cs1 | > 79 µM (inactive)
43 | O=C(c1ccco1)N1CCN(Cc2nc3ccc([N+](=O)[O-])cc3c(=O)n2-c2ccccc2F)CC1 | > 79 µM (inactive)
44 | COc1ccc(-c2oc3ncnc(NCCN4CCOCC4)c3c2-c2ccc(OC)cc2)cc1 | 34.3 µM (inactive)
45 | C[C@H](NC(=O)c1nc[nH]c1C(=O)NCC(=O)OCc1ccccc1)C(=O)OCc1ccccc1 | > 79 µM (inactive)
46 | NC(=O)c1nsc(C(=O)N(CCc2ccccc2)C(C(=O)NC2CCCC2)c2ccco2)c1N (configuration not stated) | 22.4 µM

Row | SMILES | IC50
47 | COc1ccc(/C=N/NC(=O)c2cc(OC)c(OC)c(OC)c2)cc1CN1CCc2cc(OC)c(OC)cc2C1C (configuration not stated) | > 79 µM (inactive)
48 | O=C(c1ccoc1)N1CCN(c2cc(-c3ccncc3)nc3cc(-c4cccc(Cl)c4)nn23)CC1 | > 79 µM (inactive)
49 | COc1ccc(-c2oc3c(OC)c(OC)c(OC)c(O)c3c(=O)c2OC)cc1OC | > 79 µM (inactive)
50 | O=c1[nH]c2cc(F)ccc2c2ccc(F)cc12 | 73.6 µM (inactive)
51 | O=C1C=C(N2CCOCC2)c2cccc3cccc1c23 | > 79 µM (inactive)
52 | COc1ccc(CCn2c(=O)c3cccnc3n(Cc3ccc([N+](=O)[O-])cc3)c2=O)cc1OC | 10.1 µM
53 | Cc1cccc(N=Cc2cc(Br)cc(Cl)c2O)c1 | 39.6 µM (inactive)
54 | NC(=O)c1nsc(C(=O)N(c2ccccc2F)C(C(=O)NCc2ccc(F)cc2)c2ccc(O)cc2)c1N (configuration not stated) | > 79 µM (inactive)
55 | COC(=O)c1cc2c(C)c(C)c3ccccn3c-2c1C(=O)OC | > 79 µM (inactive)
56 | CC(C)(C)OC(=O)C[C@@H]1C/C=C\C[C@@H](CC(=O)N[C@H](CO)Cc2ccccc2)C(=O)NC[C@@H](c2ccccc2)OC1=O | > 79 µM (inactive)
57 | O=C(COc1ccc(F)cc1)N/N=C/c1cccc2cccnc12 | > 79 µM (inactive)
58 | O=C(CCCSc1ccccc1)Nc1nc(-c2ccccn2)cs1 | > 79 µM (inactive)
59 | CCC(C)N1C(=O)S/C(=C/c2ccc3c(c2)n(C)c(=O)n3C)C1=O (configuration not stated) | > 79 µM (inactive)
60 | COc1cc2c(C#CCCO)c(-c3ccsc3)oc(=O)c2cc1OC | > 79 µM (inactive)
61 | CCc1cc2cccc(C)c2nc1SCC(=O)N1CCN(C(=O)c2ccco2)CC1 | > 79 µM (inactive)
62 | CCOC(=O)c1nn(-c2cccc(OC)c2)c2nc(Nc3ccccc3)cc(=O)n12 | > 79 µM (inactive)
63 | Cc1ccccc1C(C(=O)NCc1ccccc1)N(Cc1ccco1)C(=O)c1ccccn1 (configuration not stated) | 23.9 µM
64 | CN(C)C(=O)C1C2NC(=S)N(c3cccc(Cl)c3)C1(C)Oc1ccc(Cl)cc12 (configuration not stated) | 66.7 µM (inactive)
65 | Cc1c(C#N)c(N)nc2c3c(sc12)NC(=O)CC3c1ccc(Cl)cc1 (configuration not stated) | 19.7 µM
66 | Cc1ccccc1NC(=O)COC(=O)CCc1nc2ccccc2c(=O)[nH]1 | > 79 µM (inactive)
67 | COc1ccc(-c2cc(-c3nnc(COC(=O)C4CC4C)o3)c3ccccc3n2)cc1OC (configuration not stated) | > 79 µM (inactive)
68 | COc1cc(NC(=O)c2ccco2)c(OC)cc1NC(=O)c1cc(OC)c(OC)c(OC)c1 | > 79 µM (inactive)
69 | O=C(CCc1nc2ccccc2c(=O)[nH]1)N1CCN(c2ccccc2Cl)CC1 | > 79 µM (inactive)

Row | SMILES | IC50
70 | O=C(NCCc1ccc(F)cc1)C(=O)Nc1cc2c3c(c1)CC(=O)N3CCC2 | 26.9 µM
71 | O=C(N/N=C/c1cn(-c2ccccc2)nc1-c1cccnc1)c1ccccc1 | 12.8 µM
72 | O=C(CCc1nc2ccccc2c(=O)[nH]1)Nc1ccc(F)cc1 | 27.6 µM
73 | CC(=O)c1ccc(C(=O)Nc2nnc(-c3ccc(Cl)cc3)o2)cc1 | 15.7 µM
74 | CN1C(=O)CSc2ccc(NC(=O)Nc3ccccn3)cc21 | > 79 µM (inactive)
75 | COc1cc2nc(Nc3ccc(F)cc3)nc(N)c2cc1OC | 42.9 µM (inactive)
76 | COc1ccc(S(=O)(=O)N2CCOCC2)cc1NC(=O)c1cccc2c(=O)c(C)c(-c3ccccc3)oc12 | 18 µM
77 | COc1cc(/C=C/c2nc3ccccc3c(=O)n2-c2ccccc2O)ccc1O | 20.6 µM
78 | CC(=O)N1CCN(C(=O)CCc2nc3ccccc3c(=O)[nH]2)CC1 | > 79 µM (inactive)
79 | COc1cc(C(=O)Nc2ccc(NC(=O)c3cccc(Cl)c3)nc2)cc(OC)c1OC | 13.8 µM
80 | CC1CCCC(C)N1C(=O)CSc1nc2ccccc2c(=O)[nH]1 (configuration not stated) | > 79 µM (inactive)
81 | CCOC(=O)c1cc2c(=O)n3ccccc3nc2n(Cc2ccco2)c1=NC(=O)c1cccnc1 | 22.3 µM
82 | CCOC(=O)CSc1nnc(CSc2nc3sc4c(c3c(=O)[nH]2)CCC4)n1C | > 79 µM (inactive)
83 | COc1ccc(CC(=O)N/N=C(\C)c2ccccn2)cc1 | 26.7 µM
84 | CCN(C[C@H]1N[C@@](CC)(C(=O)OC)[C@H]2C(=O)N(Cc3ccccc3)C(=O)[C@@H]12)C(=O)c1ccc(C(C)(C)C)cc1 | > 79 µM (inactive)
85 | O=C(N/N=C/c1ccccn1)c1cc(C2CC2)nc2ccccc12 | > 79 µM (inactive)
86 | Cc1cc(NC(=O)c2cccs2)cc(-c2nc3ncccc3o2)c1O | > 79 µM (inactive)
87 | CCOc1ccc(-n2cc(-c3ccccc3)c3c(N4CCOCC4)ncnc32)cc1 | > 79 µM (inactive)
88 | COc1ccc(S(=O)(=O)N2CC(O)CC2C(=O)OCc2nc3sc(C)c(C)c3c(=O)[nH]2)cc1 (configuration not stated) | > 79 µM (inactive)
89 | CCOC(=O)Cc1csc(NC(=O)NC2(C(F)(F)F)Oc3ccc(Cl)cc3O2)n1 (configuration not stated) | > 79 µM (inactive)
90 | Cc1cccc(C)c1OCCn1nc(C(=O)O)c2ccccc2c1=O | 10.8 µM
91 | Cc1ccc(OCC(=O)N/N=C/c2cccc3cccnc23)cc1 | 35.8 µM (inactive)
92 | CC12C=CC(=O)CC1CCC1C2CCC2(C)C(O)C(O)CC12 (configuration not stated) | 12.3 µM
